Laboratory results: patent publication US10464927B2, “2,4-disubstituted pyrimidines as CDK inhibitors” (Shanghai Xunhe Pharmaceutical Technology Co. Ltd., priority 2016, dated 2019)

Legend:
[1] = biological target: CDK6 (Homo sapiens (Human), UniProt Q00534); assay: CDK6 protein kinase activity, Caliper mobility shift assay; type: biochemical; settings: GST-CDK6(1-326 end), substrate Peptide FAM-P8, 28° C. for 3 h
Description: (§1) Activity Assay: The CDK6 protein kinase activity was measured using the Caliper mobility shift assay (see J. Biomol. Screen, 2009, PP31). The test compound was dissolved in DMSO and diluted with a kinase buffer solution (20 mM HEPES-pH 7.5, 0.01% Triton X-100, 10 mM MgCl2, 2 mM DTT) and 5 μL of compound at 5-fold final concentration of reaction dissolved in 10% DMSO was added in a 384-well plate. The compound-free control well was 5 μL of 10% DMSO, and the no-activity control well was 5 μL of kinase buffer. 10 μL of a 2.5-fold diluted CDK6 enzyme solution (GST-CDK6(1-326 end)) was added and incubated at room temperature for 10 min, and then 10 μL of the 2.5-fold diluted substrate solution Peptide FAM-P8 was added. The reaction was stopped by adding 25 μL of stop solution after incubation at 28° C. for 3 h, and the conversion rate data was read on a Caliper EZ Reader II (Caliper Life Sciences) and the conversion rate was converted to inhibition rate data according to above method. Among them, the inhibition rate %=(max−conversion)/(max−min)×100%.

[2] = biological target: CDK4 (Homo sapiens (Human), UniProt P11802); assay: CDK4 protein kinase activity, Caliper mobility shift assay; type: biochemical; settings: GST-CDK4(1-303 end), substrate Peptide FAM-P8, 28° C. for 3 h
Sequence of CDK4 (P11802 whole entry): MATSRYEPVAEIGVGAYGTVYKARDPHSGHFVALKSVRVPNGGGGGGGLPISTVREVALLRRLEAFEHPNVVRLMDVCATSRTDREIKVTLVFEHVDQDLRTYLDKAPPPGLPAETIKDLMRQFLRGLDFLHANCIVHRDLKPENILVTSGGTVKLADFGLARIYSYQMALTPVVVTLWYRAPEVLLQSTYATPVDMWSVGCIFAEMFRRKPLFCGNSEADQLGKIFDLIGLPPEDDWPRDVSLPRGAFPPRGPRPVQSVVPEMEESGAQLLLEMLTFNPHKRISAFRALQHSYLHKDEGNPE
Sequence of CDK4 (P30281 whole entry partner): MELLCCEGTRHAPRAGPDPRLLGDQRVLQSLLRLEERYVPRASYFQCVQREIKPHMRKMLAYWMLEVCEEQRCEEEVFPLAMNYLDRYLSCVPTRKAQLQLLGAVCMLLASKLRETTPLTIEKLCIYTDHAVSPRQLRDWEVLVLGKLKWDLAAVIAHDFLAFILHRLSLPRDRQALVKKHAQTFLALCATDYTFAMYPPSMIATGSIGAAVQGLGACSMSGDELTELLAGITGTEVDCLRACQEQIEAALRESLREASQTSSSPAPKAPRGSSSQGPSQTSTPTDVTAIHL
Description: as §1, with “activity assay:” for “Activity Assay:”, “CDK4” for “CDK6”, “(GST-CDK4(1-303” for “(GST-CDK6(1-326”

Sequence of CDK6 (Q00534 whole entry): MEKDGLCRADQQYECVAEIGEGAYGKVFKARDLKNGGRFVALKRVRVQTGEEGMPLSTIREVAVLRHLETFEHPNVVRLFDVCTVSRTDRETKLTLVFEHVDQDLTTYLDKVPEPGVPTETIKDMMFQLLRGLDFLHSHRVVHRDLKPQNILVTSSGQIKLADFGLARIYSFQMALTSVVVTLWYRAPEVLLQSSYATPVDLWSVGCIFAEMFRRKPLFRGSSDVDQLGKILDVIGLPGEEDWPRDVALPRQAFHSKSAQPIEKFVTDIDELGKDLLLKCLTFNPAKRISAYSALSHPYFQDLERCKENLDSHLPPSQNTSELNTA
Sequence of CDK6 (P30281 whole entry partner): as the sequence (P30281 whole entry partner) above

SMILES	IC50 [1] [nM]	IC50 [2] [nM]
CCN1CCN(Cc2ccc(Nc3ncc(F)c(-c4ccc5c(c4)cc(C(=O)N(C)C)n5C4CCCC4)n3)nc2)CC1 [Compound I-22, N-(5-(4-ethylpiperazine-1-methyl)-pyridin-2-yl)-5-fluoro-4-(1-cyclopentyl-2-formic acid diformamido-1H-indol-5-yl)pyrimidin-2-amine]	≤ 20	≤ 20
CCN1CCN(Cc2ccc(Nc3ncc(F)c(-c4ccc5c(c4)c(C(C)=O)cn5C4CCCC4)n3)nc2)CC1 [Compound I-4, N-(5-(4-ethylpiperazine-1-methyl)-pyridin-2-yl)-5-fluoro-4-(1-cyclopentyl-3-acetyl-1H-indol-5-yl)pyrimidin-2-amine]	20 to 100	≤ 20
CC(C)n1c(C(=O)N(C)C)c(F)c2c(-c3nc(Nc4ccc(N5CCNCC5)cn4)ncc3F)ncnc21 [Compound I-10, N-(5-(piperazin-1-yl)-pyridin-2-yl)-5-fluoro-4-(5-fluoro-6-formic acid diformamido-7-isopropyl-7H-pyrrolo[2,3-d]pyrimidin-4-yl)pyrimidin-2-amine]	20 to 100	≤ 20
CCN1CCN(Cc2ccc(Nc3ncc(F)c(-c4ccc5nnc(C(F)(F)F)n5c4)n3)nc2)CC1 [Compound I-33, N-(5-(4-ethylpiperazine-1-methyl)-pyridin-2-yl)-5-fluoro-4-(3-trifluoromethyl-[1,2,4]triazolo[4,3-a]pyridin-6-yl)pyrimidin-2-amine]	≤ 20	≤ 20
CC(C)n1c(C2CCCC2)cc2cc(-c3nc(Nc4ccc(N5CCN(C6CCC6)CC5)cn4)ncc3F)ccc21 [Compound I-21, N-(5-(4-cyclobutylpiperazin-1-yl)-pyridin-2-yl)-5-fluoro-4-(1-isopropyl-2-cyclopentyl-1H-indol-5-yl)pyrimidin-2-amine]	20 to 100	≤ 20
CCN1CCN(Cc2ccc(Nc3ncc(F)c(-c4ncnc5c4cc(C(C)=O)n5C4CC4)n3)nc2)CC1 [Compound I-41, N-(5-(4-ethylpiperazine-1-methyl)-pyridin-2-yl)-5-fluoro-4-(6-acetyl-7-cyclopropyl-7H-pyrrolo[2,3-d]pyrimidin-4-yl)pyrimidin-2-amine]	≤ 20	≤ 20
CCN1CCN(Cc2ccc(Nc3ncc(F)c(-c4ccc5nnc(C(C)=O)n5c4)n3)nc2)CC1 [Compound I-35, N-(5-(4-ethylpiperazine-1-methyl)-pyridin-2-yl)-5-fluoro-4-(3-acetyl-[1,2,4]triazolo[4,3-a]pyridin-6-yl)pyrimidin-2-amine]	20 to 100	20 to 100
CCN1CCN(Cc2ccc(Nc3ncc(F)c(-c4ccc5c(c(C)nn5C5CCCC5)c4F)n3)nc2)CC1 [Compound I-45, N-(5-(4-ethylpiperazine-1-methyl)-pyridin-2-yl)-5-fluoro-4-(1-cyclopentyl-3-methyl-4-fluoro-1H-indazol-5-yl)pyrimidin-2-amine]	20 to 100	20 to 100
CC(C)n1c(C(=O)N(C)C)cc2c(F)c(-c3nc(Nc4ccc(N5CCNCC5)cn4)ncc3F)ccc21 [Compound I-28, N-(5-(piperazin-1-yl)-pyridin-2-yl)-5-fluoro-4-(1-isopropyl-2-formic acid diformamido-1H-4-fluoroindol-5-yl)pyrimidin-2-amine]	20 to 100	≤ 20
CN(C)C(=O)c1nn(C2CCCC2)c2ccc(-c3nc(Nc4ccc(N5CCNCC5)cn4)ncc3F)cc12 [Compound I-43, N-(5-(piperazin-1-yl)-pyridin-2-yl)-5-fluoro-4-(1-cyclopentyl-3-formic acid diformamido-1H-indazol-5-yl)pyrimidin-2-amine]	≤ 20	≤ 20
CCC(CC)n1c(C(C)C)nc2cnc(-c3nc(Nc4ccc(CN5CCN(C)CC5)cn4)ncc3F)nc21 [Compound I-39, N-(5-(4-methylpiperazin-1-methyl)-pyridin-2-yl)-5-fluoro-4-(9-(3-pentyl)-8-isopropyl-9H-purin-2-yl)pyrimidin-2-amine]	≤ 20	≤ 20
CCN1CCN(Cc2ccc(Nc3ncc(F)c(-c4ccc5ncc(C#N)n5c4)n3)nc2)CC1 [Compound I-34, N-(5-(4-ethylpiperazine-1-methyl)-pyridin-2-yl)-5-fluoro-4-(3-cyano-imidazo[1,2-a]pyridin-6-yl)pyrimidin-2-amine]	≤ 20	≤ 20
CCN1CCN(Cc2ccc(Nc3ncc(F)c(-c4ccc5c(n4)c(C(F)(F)F)nn5C4CCCC4)n3)nc2)CC1 [Compound I-46, N-(5-(4-ethylpiperazine-1-methyl)-pyridin-2-yl)-5-fluoro-4-(1-cyclopentyl-3-trifluoromethyl-4-aza-1H-indazol-5-yl)pyrimidin-2-amine]	20 to 100	20 to 100
CCN1CCN(Cc2ccc(Nc3ncc(F)c(-c4ncnc5c4cc(C)n5C4CCCC4)n3)nc2)CC1 [Compound I-11, N-(5-(4-ethylpiperazine-1-methyl)-pyridin-2-yl)-5-fluoro-4-(6-methyl-7-cyclopentyl-7H-pyrrolo[2,3-d]pyrimidin-4-yl)pyrimidin-2-amine]	100 to 500	≤ 20
Fc1cnc(Nc2ccc(CN3CCN(C4CCCCCC4)CC3)cn2)nc1-c1ccc2c(c1)c(C1CC1)cn2C1CCC1 [Compound I-18, N-(5-(4-cycloheptylpiperazine-1-methyl)-pyridin-2-yl)-5-fluoro-4-(1-cyclobutyl-3-cyclopropyl-1H-indol-5-yl)pyrimidin-2-amine]	≤ 20	≤ 20
CCN1CCN(Cc2ccc(Nc3ncc(F)c(-c4ccc5c(cc(C(=O)N(C)C)n5C(C)C)n4)n3)nc2)CC1 [Compound I-26, N-(5-(4-ethylpiperazine-1-methyl)-pyridin-2-yl)-5-fluoro-4-(1-isopropyl-2-formic acid diformamido-1H-4-azaindol-5-yl)pyrimidin-2-amine]	20 to 100	≤ 20
CC(=O)c1cn(C2CCCC2)c2ccc(-c3nc(Nc4ccc(N5CCNCC5)cn4)ncc3F)cc12 [Compound I-3, N-(5-(piperazin-1-yl)-pyridin-2-yl)-5-fluoro-4-(1-cyclopentyl-3-acetyl-1H-indol-5-yl)pyrimidin-2-amine]	≤ 20	≤ 20
Cn1nc2nc(-c3nc(Nc4ccc(N5CCNCC5)cn4)ncc3F)ccc2c1C1CCCC1 [Compound I-12, N-(5-(piperazin-1-yl)-pyridin-2-yl)-5-fluoro-4-(2-methyl-3-cyclopentyl-2H-7-azaindazol-6-yl)pyrimidin-2-amine]	≤ 20	≤ 20
CCN1CCN(Cc2ccc(Nc3ncc(F)c(-c4ccc5c(ccn5C(C)C)c4)n3)nc2)CC1 [Compound I-1, N-(5-(4-ethylpiperazine-1-methyl)-pyridin-2-yl)-5-fluoro-4-(1-isopropyl-1H-indol-5-yl)-pyrimidin-2-amine]	≤ 20	≤ 20
CN(C)C(=O)c1cc2cc(-c3nc(Nc4ccc(N5CCNCC5)cn4)ncc3F)ccc2n1C1CCCC1 [Compound I-14, N-(5-(piperazin-1-yl)-pyridin-2-yl)-5-fluoro-4-(1-cyclopentyl-2-formic acid diformamido-1H-indol-5-yl)pyrimidin-2-amine]	≤ 20	≤ 20
Cc1c2ccc(-c3nc(Nc4ccc(N5CCNCC5)cn4)ncc3F)cc2nn1C [Compound I-5, N-(5-(piperazin-1-yl)-pyridin-2-yl)-5-fluoro-4-(2,3-dimethyl-2H-indazol-6-yl)pyrimidin-2-amine]	≤ 20	≤ 20
CC(=O)c1nc(C2CC2)n2cc(-c3nc(Nc4ccc(N5CCNCC5)cn4)ncc3F)cc(F)c12 [Compound I-32, N-(5-(piperazin-1-yl)-pyridin-2-yl)-5-fluoro-4-(1-acetyl-3-cyclopropyl-8-fluoro-imidazolo[1,5-a]pyridin-6-yl)pyrimidin-2-amine]	20 to 100	≤ 20
